Active and inactive are the calls of the source. No cut-off for these calls is given here.
What was measured:
Staphylococcus aureus [1] = experiment: Antibacterial activity against methicillin-resistant Staphylococcus aureus 15 incubated for 16 to 18 hrs in presence of cardiolipin by checkerboard microdilution assay; format: functional, organism-based; settings: time 16-18 hrs
[2] = Toxicity in BALB/c mouse assessed as effect on urea level at 50 mg/kg, ip administered as single dose and measured after 24 hrs; format: organism-based; settings: in vivo
Staphylococcus aureus [3] = experiment: Bactericidal activity against methicillin-resistant Staphylococcus aureus 15 at 4 to 8 times MIC measured after 3 hrs by time kill assay; format: functional
[4] = Toxicity in BALB/c mouse assessed as survival rate at 10 to 50 mg/kg, ip administered as single dose and measured for 7 consecutive days; format: organism-based; settings: in vivo, dose 10-50 mg/kg, time 7 day
Cell membrane [5] = experiment: Induction of cell membrane disruption in methicillin-resistant Staphylococcus aureus 15 assessed as protein leakage at 1 to 6 times MIC incubated for 1 to 2 hrs; format: subcellular; settings: time 1-2 hrs
Staphylococcus aureus [6] = experiment: Upregulation of YidC gene expression in methicillin-resistant Staphylococcus aureus 15 assessed as log2 of fold change in gene expression at 8 ug/ml incubated for 6 hrs by transcriptome analysis; format: functional; settings: dose 8 µg/ml
Staphylococcus aureus [7] = experiment: Upregulation of rplJ gene expression in methicillin-resistant Staphylococcus aureus 15 assessed as log2 of fold change in gene expression at 8 ug/ml incubated for 6 hrs by transcriptome analysis; format: functional; settings: dose 8 µg/ml
Staphylococcus aureus [8] = experiment: Antibacterial activity against methicillin-resistant Staphylococcus aureus 15 infected in BALB/c mouse sepsis model assessed as reduction in bacterial load in spleen at 10 mg/kg, ip measured after 48 hrs; format: functional, organism-based
[9] = Stability in 50% plasma (unknown origin) assessed as change in MBC against methicillin-resistant Staphylococcus aureus 15 measured for 6 hrs; format: ADME, cell-free
Staphylococcus aureus [10] = experiment: Antibiofilm activity against Staphylococcus aureus ATCC 29213 assessed as reduction in live bacteria in biofilm incubated for 24 hrs by crystal violet staining based analysis; format: functional, organism-based; settings: dose 0-128 µg/ml
Staphylococcus aureus [11] = experiment: Induction of ROS production in methicillin-resistant Staphylococcus aureus 15 assessed as accumulation of intracellular ROS incubated for 30 mins by DCFH-DA staining based fluorescence assay; format: functional, organism-based; settings: dose 2-64 µg/ml
Staphylococcus aureus [12] = experiment: Downregulation of pgaC gene expression in methicillin-resistant Staphylococcus aureus 15 assessed as fold change in gene expression at 8 ug/ml incubated for 6 hrs by transcriptome analysis; format: functional; settings: dose 8 µg/ml
L02 [13] = experiment: Cytotoxicity against human L02 cells assessed as effect on cell morphology at 2.5 to 80 ug/ml incubated for 24 hrs by Hoechst 33342 and propidium iodide staining based fluorescence microscopic analysis; format: toxicity; settings: l02, 24 h, dose 2.5-80 µg/ml
[14] = Toxicity in BALB/c mouse assessed as effect on creatinine level at 50 mg/kg, ip administered as single dose and measured after 24 hrs; format: organism-based; settings: in vivo
L02 [15] = experiment: Cytotoxicity against human L02 cells assessed as reduction in cell viability at 2.5 to 80 ug/ml incubated for 24 hrs by CCK-8 assay; format: toxicity, cell-based; settings: l02, 24 h, dose 2.5-80 µg/ml
Staphylococcus aureus [16] = experiment: Bactericidal activity against Staphylococcus aureus ATCC 29213 at 4 to 8 times MIC measured for 24 hrs by time kill assay; format: functional, organism-based
Staphylococcus aureus [17] = experiment: Upregulation of SPI gene expression in methicillin-resistant Staphylococcus aureus 15 assessed as log2 of fold change in gene expression at 8 ug/ml incubated for 6 hrs by transcriptome analysis; format: functional; settings: dose 8 µg/ml
[18] = Binding affinity to methicillin-resistant Staphylococcus aureus 15 cardiolipin assessed as dissociation constant by ITC method
Staphylococcus aureus [19] = experiment: Antibacterial activity against methicillin-resistant Staphylococcus aureus 15 infected in BALB/c mouse sepsis model assessed as normalization of cell morphology in liver at 10 mg/kg, ip measured after 48 hrs by H & E staining based analysis; format: functional, organism-based
Cell membrane [20] = experiment: Disruption of membrane integrity in methicillin-resistant Staphylococcus aureus 15 assessed as increase in fluorescence intensity at 32 ug/ml measured immediately by Sytox green based fluorescence method; format: subcellular; settings: dose 32.0 µg/ml
Micrococcus luteus = experiment: Antibacterial activity against Micrococcus luteus assessed as inhibition of bacterial growth incubated for 16 to 20 hrs by CLSI based microdilution method; format: functional; settings: time 16-20 hrs
[21] = Toxicity in BALB/c mouse assessed as effect on platelet count at 50 mg/kg, ip administered as single dose and measured after 24 hrs; format: organism-based; settings: in vivo
Staphylococcus aureus [22] = experiment: Inhibition of biofilm formation in Staphylococcus aureus ATCC 29213 incubated for 24 hrs by crystalline violet staining based analysis; format: functional, organism-based; settings: dose 0.125-64 µg/ml
[23] = Binding affinity to methicillin-resistant Staphylococcus aureus 15 phosphatidylglycerol assessed as dissociation constant by ITC method

SMILES	Activity (Staphylococcus aureus [1])	Activity [2]	Activity (Staphylococcus aureus [3]) [%]	survival at 168 h [4] [%]	Activity (Cell membrane [5])	Activity (Staphylococcus aureus [8])	Stability [9]	Activity (Staphylococcus aureus [10])	Activity (Staphylococcus aureus [11])	Activity (L02 [13])	Activity [14]	Activity (L02 [15])	Activity (Staphylococcus aureus [16])	Activity (Staphylococcus aureus [19])	Activity (Cell membrane [20])	MIC (Micrococcus luteus) [µg/mL]	Activity [21]	inhibition (Staphylococcus aureus [22])	other results
C=CCc1cccc(Oc2ccc(C(=O)CC)cc2)c1OCCC[N+](C)(C)CC(=O)NCCCCCC.[Br-]	inactive	Non-Toxic	100	100	Active	Active	Stable	Active	Dose-Dependent Effect	Non-Toxic	Non-Toxic	Non-Toxic	Dose-Dependent Effect	Active	Active	1	Non-Toxic	Dose-Dependent Effect	log2FC (Staphylococcus aureus [6]): 1.27; log2FC (Staphylococcus aureus [7]): 1.8; log2FC (Staphylococcus aureus [12]): -2.8; log2FC (Staphylococcus aureus [17]): 1.96; Kd [18]: 1330 nM; Kd [23]: 3430 nM
C=CCc1cccc(Oc2ccc(C(=O)CC)cc2)c1OCC[N+](C)(C)CC(=O)NCCCCCC.[Br-]	inactive	Non-Toxic	100	100	Active	Active	Stable	Active	Dose-Dependent Effect	Non-Toxic	Non-Toxic	Non-Toxic	Dose-Dependent Effect	Active	Active	4	Non-Toxic	Dose-Dependent Effect	
